# Patent publication US20250197428A1, “INHIBITORS OF KIF18A AND USES THEREOF” (ACCENT THERAPEUTICS, INC., priority 2022, published 2025)
# pIC50: −log10 of the molar value. Read-outs that look alike come from different tables or passages of the source.
# Columns and labels:
# [1] = Bone marrow concentration in 28 day OVCAR-3 xenograft study; assay type: in vivo, mice; conditions: NOD SCID, mouse, 28 day study; for concentration at 6 h: read-out: Bone marrow concentration at 6 h post-last dose; for concentration at 24 h: read-out: Bone marrow concentration at 24 h post-last dose
# Method: On Day 28, tissues were collected from animals. About 30-60 μL of whole blood was collected into tubes containing EDTA anticoagulant, and plasma was harvested by centrifugation at 4,000 g×5 min and stored at −80° C. until analysis. Plasma analysis followed the same protocol as for the Day 1 plasma analysis. Additionally, the femurs of the mice were cut and put in pre-weighed tubes. The bone marrow was harvested by centriguation at 8,000 g×15 min. Then, the total weight of both the bone marrow and the tube was recorded. The bone marrow was stored at −80° C. until analysis.
# Samples were collected from animals 6 h after the last dose of compound and at 24 h after the last dose of compound.
# KIF18A = KIF18A (Homo sapiens (Human), UniProt Q8NI77); experiment: KIF18A Biochemical Assay (ATPase, ADP-Glo)
# Chain of KIF18A (Q8NI77 1-367): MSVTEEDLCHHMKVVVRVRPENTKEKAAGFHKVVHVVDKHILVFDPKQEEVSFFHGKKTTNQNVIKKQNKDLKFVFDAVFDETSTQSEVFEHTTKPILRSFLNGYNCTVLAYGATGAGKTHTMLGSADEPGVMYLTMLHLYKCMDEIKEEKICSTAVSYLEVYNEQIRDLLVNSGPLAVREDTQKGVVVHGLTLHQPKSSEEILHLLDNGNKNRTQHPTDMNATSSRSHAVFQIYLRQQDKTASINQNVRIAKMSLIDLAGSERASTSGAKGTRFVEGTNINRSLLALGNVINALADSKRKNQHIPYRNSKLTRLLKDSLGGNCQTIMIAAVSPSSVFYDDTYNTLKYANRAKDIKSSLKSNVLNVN
# Chain of KIF18A (P02550 whole entry partner): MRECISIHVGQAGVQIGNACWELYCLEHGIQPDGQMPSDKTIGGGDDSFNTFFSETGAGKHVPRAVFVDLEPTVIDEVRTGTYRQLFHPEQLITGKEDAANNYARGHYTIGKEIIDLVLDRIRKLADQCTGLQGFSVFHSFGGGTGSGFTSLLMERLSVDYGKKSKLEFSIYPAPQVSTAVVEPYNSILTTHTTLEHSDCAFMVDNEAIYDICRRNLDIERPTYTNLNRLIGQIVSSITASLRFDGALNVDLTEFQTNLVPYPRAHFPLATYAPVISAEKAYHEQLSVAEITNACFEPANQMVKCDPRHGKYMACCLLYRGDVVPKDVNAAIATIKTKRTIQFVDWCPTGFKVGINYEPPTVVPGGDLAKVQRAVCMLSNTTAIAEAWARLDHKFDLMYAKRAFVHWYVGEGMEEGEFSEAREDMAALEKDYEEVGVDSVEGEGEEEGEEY
# Chain of KIF18A (P02554 whole entry partner): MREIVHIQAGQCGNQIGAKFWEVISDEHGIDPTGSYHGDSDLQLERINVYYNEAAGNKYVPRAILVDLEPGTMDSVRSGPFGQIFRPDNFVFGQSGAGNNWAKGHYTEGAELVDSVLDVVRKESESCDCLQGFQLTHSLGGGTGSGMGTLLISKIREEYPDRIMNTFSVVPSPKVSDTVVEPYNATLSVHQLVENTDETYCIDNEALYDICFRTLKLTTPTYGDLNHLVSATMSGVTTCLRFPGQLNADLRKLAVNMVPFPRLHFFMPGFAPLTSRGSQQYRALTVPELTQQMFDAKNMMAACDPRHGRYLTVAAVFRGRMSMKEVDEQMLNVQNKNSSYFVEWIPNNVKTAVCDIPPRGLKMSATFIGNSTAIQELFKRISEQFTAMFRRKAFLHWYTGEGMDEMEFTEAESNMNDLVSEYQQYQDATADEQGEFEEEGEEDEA
# [2] = Caco-2 permeation assay, bidirectional permeability; assay type: in vitro ADME; conditions: human, Caco-2, pH 7.4, 5 μM, Papp(B-A)/Papp(A-B)
# How it was run: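 Bidirectional A→B and B→A transport of 5 μM compound in HBSS (10 mM HEPES, pH 7.4), receiver containing 2% BSA, 2 h at 37 °C on 14-day monolayers. Papp from LC-MS/MS peak areas; efflux ratio Papp(B-A)/Papp(A-B), plus recovery. Lucifer Yellow leakage <1% required for monolayer acceptance.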
# [3] = In vivo pharmacokinetic evaluation in mouse; set-up: species or system female balb/c nude mice
smiles,measurement,setting,value
"Cc1cc(NC(=O)c2ccc(NS(=O)(=O)CCO)cc2N2CC[C@@]3(C(F)F)C[C@H]3C2)nc(N2CCC(F)(F)CC2)n1 (single isomer, unassigned) [Example 29b]",concentration at 6 h,[1]; 10 mg/kg QD oral,2800 ng/g
same,concentration at 24 h,[1]; 10 mg/kg QD oral,210 ng/g
same,concentration at 6 h,[1]; 30 mg/kg QD oral,10500 ng/g
same,concentration at 24 h,[1]; 30 mg/kg QD oral,900 ng/g
same,pIC50,KIF18A,> 7.00
same,"efflux ratio at 2 h, 5 μM",[2],≥ 10
same,IV Clearance,[3]; 3 mg/kg IV,3.3 mL/ming/kg
same,Vd,"[3]; female, balb/c nude, plasma, 3 mg/kg IV, read-out: IV Vss",0.97 L/kg
same,Cmax,"[3]; female, balb/c nude, plasma, 10 mg/kg PO",4700 ng/mL
same,half-life,"[3]; female, balb/c nude, plasma, 10 mg/kg PO, read-out: PO T1/2 (converted)",222 min
